Blank lines part the entries; values can stand above or below the compound they belong to.
Assays:
Thrombin = target: T1, Thrombin (Bos taurus, UniProt P00735); assay: Thrombin inhibition, chromogenic substrate N-Benzoyl-Phe-Val-Arg-p-nitroanilide; format: biochemical; settings: Examples 10, 11; thrombin from bovine plasma; bile salt from 100 mg/ml; 37° C., up to 30 minutes; FIGS. 13, 14
T1 construct: Thrombin, from bovine plasma; from tissue; host or cells: bovine plasma
Protocol: Thrombin, from bovine plasma, was dissolved in HBSS at a concentration of 0.5 mg/ml. The substrate N-Benzoyl-Phe-Val-Arg-p-nitroanilide hydrochloride was dissolved in HBSS at a concentration of 0.5 mg/ml, and sodium chenodeoxycholate was dissolved at a range of concentrations starting at 100 mg/ml. The assay was conducted in the wells of 96-well clear plastic microplates, in which 50:1 of enzyme solution and 100:1 of bile salt were mixed together, and then 50:1 of substrate was added, with mixing, at the start of the reaction, which proceeded at 37° C. for up to 30 minutes, with measurement at various intermediate time points. The progress of the enzymatic reaction was assessed by measuring the appearance of reaction product (p-nitroaniline) colorimetrically using a wavelength of 405 nm on an Anthos reader 2001 from Anthos Labtec Instruments.
Example 10 was repeated but with sodium deoxycholate instead of sodium chenodeoxycholate.

chymotrypsin = target: T2, chymotrypsin (Bos taurus, UniProt P00766); assay: Chymotrypsin inhibition, fluorogenic peptide substrates; format: biochemical, bovine
T2 construct: Chymotrypsin, from bovine plasma; from tissue
Protocol: (§1) The following Examples serve to illustrate the present invention, and should not be construed as limiting.
(§2) Trypsin, from bovine pancreas, was dissolved in Hanks Balanced Salt Solution (HBSS) at a concentration of 0.02 mg/ml. The substrate Z-L-arginine 4-methyl-7coumarinylamide was dissolved in HBSS at a concentration of 0.01 mg/ml, and sodium chenodeoxycholate was dissolved at a range of concentrations starting at 100 mg/ml. The assay was conducted in the wells of 96-well black plastic microplates, in which 20:1 of enzyme solution and 60:1 of bile salt were mixed together, and then 20:1 of substrate was added, with mixing, at the start of the reaction, which proceeded at room temperature for up to 30 minutes, with measurement at various intermediate time points.
Example 1 was repeated but with chymotrypsin as the protease (instead of trypsin) and with glutaryl-L-phenylalanine 4-methyl-7-coumarinylamide as the substrate.
Example 2 was repeated but with sodium deoxycholate instead of sodium chenodeoxycholate.
(§3) Chymotrypsin, from bovine plasma, was dissolved in HBSS at a concentration of 0.02 mg/ml. The substrate Boc-β-benzyl-Asp-Pro-Arg-7-amido-4-methylcoumarin was dissolved in HBSS at a concentration of 0.01 mg/ml, and sodium chenodeoxycholate was dissolved at 100 mg/ml. The assay was conducted in the wells of 96-well clear plastic microplates, in which 20:1 of enzyme solution and 60:1 of bile salt were mixed together, and then 20:1 of substrate was added, with mixing, at the start of the reaction, which proceeded at 37° C. for up to 30 minutes, with measurement at various intermediate time points.

Trypsin = target: T3, Trypsin (Bos taurus, UniProt P00760); assay: Trypsin inhibition, fluorogenic substrate Z-L-arginine 4-methyl-7-coumarinylamide; format: biochemical, bovine; settings: up to 30 minutes
T3 construct: Trypsin, from bovine pancreas; from tissue; host or cells: bovine pancreas
T3 sequence (P00760 24-246): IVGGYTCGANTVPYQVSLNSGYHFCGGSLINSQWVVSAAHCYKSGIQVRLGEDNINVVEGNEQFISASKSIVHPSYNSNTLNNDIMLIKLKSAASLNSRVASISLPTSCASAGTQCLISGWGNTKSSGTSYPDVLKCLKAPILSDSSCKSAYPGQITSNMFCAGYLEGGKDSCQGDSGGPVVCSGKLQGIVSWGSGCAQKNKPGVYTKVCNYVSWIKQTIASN
Protocol: as §1, §2
Example 1 was repeated but with sodium deoxycholate instead of sodium chenodeoxycholate.
as §2, with “HBSS” for “Hanks Balanced Salt Solution (HBSS)”, “4-methyl-7-coumarinylamide” for “4-methyl-7coumarinylamide”, “ursodeoxycholate” for “chenodeoxycholate”, “50” for “100”, “100:1” for “60:1”, “37° C.” for “room temperature”
as §2, with “HBSS” for “Hanks Balanced Salt Solution (HBSS)”, “4-methyl-7-coumarinylamide” for “4-methyl-7coumarinylamide”, “glycodeoxycholate” for “chenodeoxycholate”, “100:1” for “60:1”, “37° C.” for “room temperature”
Example 5 was repeated but with sodium glycochenodeoxycholate instead of sodium ursodeoxycholate.
Example 6 was repeated but with sodium glycocholate instead of sodium glycodeoxycholate.
Example 9 was repeated but with trypsin (instead of chymotrypsin) from bovine plasma, Z-L-arginine 4-methyl-7-coumarinylamide as the substrate and metformin as the inhibitor.
as §3, with “Trypsin,” for “Chymotrypsin,”, “pancreas,” for “plasma,”, “Z-L-arginine 4-methyl-7-coumarinylamide” for “Boc-β-benzyl-Asp-Pro-Arg-7-amido-4-methylcoumarin”, “phenformin” for “sodium chenodeoxycholate”, “black” for “clear”, “100:1” for “60:1”

gut proteases = assay: Inhibition of gut proteases, general statement; format: biochemical; settings: see FIGS. 5 and 6
[1] = Example 4, substrate glutaryl-L-phenylalanine 4-methyl-7-coumarinylamide, bile salt 25 mg/ml, FIG. 6
[2] = Example 3, bile salt 25 mg/ml, room temperature, FIG. 5
[3] = Examples 5-8, 13, trypsin from bovine pancreas, 37° C., FIGS. 7-11, 16

Inhibition of thrombin activity over time (Thrombin): Inhibition of enzyme activity
Inhibition of chymotrypsin activity over time and dose response (chymotrypsin; Example 2, substrate glutaryl-L-phenylalanine 4-methyl-7-coumarinylamide, bile salt from 100 mg/ml, FIGS. 3, 4): Inhibition of enzyme activity
Inhibition of chymotrypsin activity over time (chymotrypsin; Example 9, chymotrypsin from bovine plasma, substrate Boc-β-benzyl-Asp-Pro-Arg-7-amido-4-methylcoumarin, 100 mg/ml, 37° C., FIG. 12): Inhibition of enzyme activity
Inhibition of trypsin activity over time and dose response (Trypsin; Example 1, trypsin from bovine pancreas, bile salt from 100 mg/ml, room temperature, FIGS. 1, 2): Inhibition of enzyme activity
Structure (SMILES): C[C@H](CCC(=O)O)[C@H]1CC[C@H]2[C@@H]3[C@H](O)C[C@@H]4C[C@H](O)CC[C@]4(C)[C@H]3CC[C@]12C [chenodeoxycholate, sodium chenodeoxycholate]

Inhibition of trypsin activity over time (Trypsin; [3]): Inhibition of enzyme activity
Structure (SMILES): C[C@H](CCC(=O)NCC(=O)O)[C@H]1CC[C@H]2[C@@H]3[C@H](O)C[C@@H]4C[C@H](O)CC[C@]4(C)[C@H]3C[C@H](O)[C@]12C [glycocholate, sodium glycocholate]

Inhibition of trypsin activity over time (Trypsin; Example 12, trypsin from bovine plasma, 37° C., FIG. 15): Inhibition of enzyme activity
Structure (SMILES): CN(C)C(=N)N=C(N)N [metformin]

Inhibition of trypsin activity over time (Trypsin; [2]): do not inhibit trypsin
Structure (SMILES): C[C@H](CCC(=O)NCCS(=O)(=O)O)[C@H]1CC[C@H]2[C@@H]3CC[C@@H]4C[C@H](O)CC[C@]4(C)[C@H]3C[C@H](O)[C@]12C [taurodeoxycholate, taurodeoxycholic acid]
Inhibitory effect on gut proteases (gut proteases): do not have this inhibitory effect

Inhibition of trypsin activity over time (Trypsin; [3]): Inhibition of enzyme activity
Structure (SMILES): C[C@H](CCC(=O)O)[C@H]1CC[C@H]2[C@@H]3[C@@H](O)C[C@@H]4C[C@H](O)CC[C@]4(C)[C@H]3CC[C@]12C [ursodeoxycholate, sodium ursodeoxycholate]

Second part, the compound before the results:

Structure (SMILES): C[C@H](CCC(=O)O)[C@H]1CC[C@H]2[C@@H]3[C@H](O)C[C@@H]4C[C@H](O)CC[C@]4(C)[C@H]3C[C@H](O)[C@]12C [cholate, cholic acid]
Inhibition of chymotrypsin activity over time (chymotrypsin; [1]): do not inhibit chymotrypsin
Inhibitory effect on gut proteases (gut proteases): do not have this inhibitory effect
Inhibition of trypsin activity over time (Trypsin; [2]): do not inhibit trypsin

Structure (SMILES): C[C@H](CCC(=O)[O-])[C@H]1CC[C@H]2[C@@H]3CC[C@@H]4C[C@H](O)CC[C@]4(C)[C@H]3C[C@H](O)[C@]12C.[Na+] [deoxycholate, sodium deoxycholate]
Inhibition of thrombin activity over time (Thrombin): Inhibition of enzyme activity
Inhibition of chymotrypsin activity over time (chymotrypsin; [1]): Inhibition of enzyme activity
Inhibition of trypsin activity over time (Trypsin; [2]): Inhibition of enzyme activity

Structure (SMILES): C[C@H](CCC(=O)NCC(=O)O)[C@H]1CC[C@H]2[C@@H]3[C@H](O)C[C@@H]4C[C@H](O)CC[C@]4(C)[C@H]3CC[C@]12C [glycochenodeoxycholate, sodium glycochenodeoxycholate]
Inhibition of trypsin activity over time (Trypsin; [3]): Inhibition of enzyme activity

Structure (SMILES): C[C@H](CCC(=O)NCC(=O)[O-])[C@H]1CC[C@H]2[C@@H]3CC[C@@H]4C[C@H](O)CC[C@]4(C)[C@H]3C[C@H](O)[C@]12C.[Na+] [glycodeoxycholate, sodium glycodeoxycholate]
Inhibition of trypsin activity over time (Trypsin; [3]): Inhibition of enzyme activity

Structure (SMILES): [H]/N=C(/N)N/C(=N/[H])NCCc1ccccc1 [phenformin]
Inhibition of trypsin activity over time (Trypsin; [3]): Inhibition of enzyme activity

Structure (SMILES): C[C@H](CCC(=O)NCCS(=O)(=O)O)[C@H]1CC[C@H]2[C@@H]3[C@H](O)C[C@@H]4C[C@H](O)CC[C@]4(C)[C@H]3C[C@H](O)[C@]12C [taurocholate, taurocholic acid]
Inhibition of chymotrypsin activity over time (chymotrypsin; [1]): do not inhibit chymotrypsin
Inhibitory effect on gut proteases (gut proteases): do not have this inhibitory effect
Inhibition of trypsin activity over time (Trypsin; [2]): do not inhibit trypsin
